In publication PMC11995724, “Antibiotic target discovery by integrated phenotypic and activity-based profiling of electrophilic fragments” (Cell chemical biology, 2025):
Structures can show the parent of a compound that is named as a salt.

Assay: in vitro
Details: human, hek293t cells

Compound | viability at 48 h, 25 µM
CC(Cl)C(=O)NC1CC(=O)N(Cc2ccccc2C(F)(F)F)C1 (stereo not shown) [6-J19, 2-chloro-N-(5-oxo-1-{[2-(trifluoromethyl)phenyl]methyl}pyrrolidin-3-yl)propanamide] | 108%
CC(Cl)C(=O)N(C)C1CCN(c2ccccn2)CC1 (stereo not shown) [6-J20, 2-chloro-N-methyl-N-[1-(pyridin-2-yl)piperidin-4-yl]propanamide] | 106%
CC(Cl)C(=O)N(C)C1CCS(=O)(=O)CC1 (stereo not shown) [6-J21, 2-chloro-N-(1,1-dioxo-1lambda6-thian-4-yl)-N-methylpropanamide] | 99.1%
CC(Cl)C(=O)N1CCCC(CNC(=O)Nc2ccc(F)cc2)C1 (stereo not shown) [6-J22, 3-{[1-(2-chloropropanoyl)piperidin-3-yl]methyl}-1-(4-fluorophenyl)urea] | 105%
Cc1ccsc1-c1nnc(NC(=O)CCl)o1 [6-K03, 2-chloro-N-[5-(3-methylthiophen-2-yl)-1,3,4-oxadiazol-2-yl]acetamide] | 72.7%
CC1CCCN(Cc2ccc(CNC(=O)CCl)cc2)C1 (stereo not shown) [6-K04, 2-chloro-N-({4-[(3-methylpiperidin-1-yl)methyl]phenyl}methyl)acetamide hydrochloride] | 56.4%
CCc1ccc(CNC(=O)CCl)s1 [6-K05, 2-chloro-N-[(5-ethylthiophen-2-yl)methyl]acetamide] | 5.18%
Cc1cc(C)c(CCNC(=O)CCl)c(C)c1 [6-K06, 2-chloro-N-[2-(2,4,6-trimethylphenyl)ethyl]acetamide] | 14.3%
O=C(CCl)Nc1ccc(OCc2ccccc2)cc1 [6-K07, N-[4-(benzyloxy)phenyl]-2-chloroacetamide] | 0.0552%
O=C(CCl)NC(c1ccc(F)cc1)C1CCCC1 (stereo not shown) [6-K08, 2-chloro-N-[cyclopentyl(4-fluorophenyl)methyl]acetamide] | 1.04%
CC(Cl)C(=O)Nc1c(Cl)cc(Cl)cc1Cl (stereo not shown) [6-K09, 2-chloro-N-(2,4,6-trichlorophenyl)propanamide] | 115%
O=C(CCl)NCc1ccccc1C(F)(F)F [6-K10, 2-chloro-N-{[2-(trifluoromethyl)phenyl]methyl}acetamide] | 2.67%
CCC(C)c1ccccc1NC(=O)CCl (stereo not shown) [6-K11, N-[2-(butan-2-yl)phenyl]-2-chloroacetamide] | 0.743%
COc1cc2c(cc1OC)C(c1ccccc1)N(C(=O)CCl)CC2 (stereo not shown) [6-K12, 2-chloro-1-(6,7-dimethoxy-1-phenyl-1,2,3,4-tetrahydroisoquinolin-2-yl)ethan-1-one] | 0.105%
O=C(CCl)Nc1ccc(Cl)c(S(=O)(=O)N2CCOCC2)c1 [6-K13, 2-chloro-N-[4-chloro-3-(morpholine-4-sulfonyl)phenyl]acetamide] | 0.541%
O=C(CCl)NCc1ccccc1CN1CCCC1=O [6-K14, 2-chloro-N-({2-[(2-oxopyrrolidin-1-yl)methyl]phenyl}methyl)acetamide] | 2.03%
CC(Cl)C(=O)Nc1ccc(F)cc1 (stereo not shown) [6-K15, 2-chloro-N-(4-fluorophenyl)propanamide] | 113%
CC(C#N)CSc1ccccc1NC(=O)CCl (stereo not shown) [6-K16, 2-chloro-N-{2-[(2-cyano-2-methylethyl)sulfanyl]phenyl}acetamide] | 1.3%
O=C(CCl)Nc1nnc(-c2ccccc2Cl)s1 [6-K17, 2-chloro-N-[5-(2-chlorophenyl)-1,3,4-thiadiazol-2-yl]acetamide] | 0.539%
CC(C)c1ccc(CN(C(=O)CCl)C2CC2)cc1 [6-K18, 2-chloro-N-cyclopropyl-N-{[4-(propan-2-yl)phenyl]methyl}acetamide] | 1.65%
Cc1cc(CO[C@H]2CC[C@H](NC(=O)CCl)CC2)on1 [6-K19, 2-chloro-N-[(1r,4r)-4-[(3-methyl-1,2-oxazol-5-yl)methoxy]cyclohexyl]acetamide] | 88.1%
O=C(CCl)NCCc1nc2ccccc2s1 [6-K20, N-[2-(1,3-benzothiazol-2-yl)ethyl]-2-chloroacetamide] | 98%
CC(Cl)C(=O)NC1CC=CCC1 (stereo not shown) [6-K21, 2-chloro-N-(cyclohex-3-en-1-yl)propanamide] | 114%
CC(=O)c1cccc(NC(=O)C(C)Cl)c1 (stereo not shown) [6-K22, N-(3-acetylphenyl)-2-chloropropanamide] | 105%
CC(Cl)C(=O)NC1CCCN(S(=O)(=O)N2CCOCC2)C1 (stereo not shown) [6-L03, 2-chloro-N-[1-(morpholine-4-sulfonyl)piperidin-3-yl]propanamide] | 111%
O=C(CCl)N1N=C(c2cccs2)CC1c1cccc(O)c1 (stereo not shown) [6-L04, 2-chloro-1-[5-(3-hydroxyphenyl)-3-(thiophen-2-yl)-4,5-dihydro-1H-pyrazol-1-yl]ethan-1-one] | 0.561%
CC(Cl)C(=O)N1CCOC(c2ccnc(N(C)C)n2)C1 (stereo not shown) [6-L05, 2-chloro-1-{2-[2-(dimethylamino)pyrimidin-4-yl]morpholin-4-yl}propan-1-one] | 99.1%
CCc1ccccc1NC(=O)CN(C)C(=O)CCl [6-L06, 2-chloro-N-{[(2-ethylphenyl)carbamoyl]methyl}-N-methylacetamide] | 0.728%

Compound | viability at 48 h, 25 µM
CC(NC(=O)CCl)c1nc(Cc2ccccc2)no1 (stereo not shown) [6-L07, N-[1-(3-benzyl-1,2,4-oxadiazol-5-yl)ethyl]-2-chloroacetamide] | 1.28%
Cc1ccccc1CN1CCC(NC(=O)CCl)CC1 [6-L08, 2-chloro-N-{1-[(2-methylphenyl)methyl]piperidin-4-yl}acetamide hydrochloride] | 113%
O=C(CCl)N(Cc1cnn(-c2ccccc2)c1)C1CC1 [6-L09, 2-chloro-N-cyclopropyl-N-[(1-phenyl-1H-pyrazol-4-yl)methyl]acetamide] | 1.4%
CC(Cl)C(=O)Nc1nc(-c2ccccc2)cs1 (stereo not shown) [6-L10, 2-chloro-N-(4-phenyl-1,3-thiazol-2-yl)propanamide] | 101%
O=C(CCl)N(Cc1ccc2c(c1)CCO2)C1CCCC1 [6-L11, 2-chloro-N-cyclopentyl-N-[(2,3-dihydro-1-benzofuran-5-yl)methyl]acetamide] | 0.358%
COc1cc(S(=O)(=O)N2CCOCC2)ccc1NC(=O)CCl [6-L12, 2-chloro-N-[2-methoxy-4-(morpholine-4-sulfonyl)phenyl]acetamide] | 0.942%
CC(Cl)C(=O)N1C2CCC1CC(N(C)C(=O)c1ccccc1)C2 (stereo not shown) [6-L14, N-[8-(2-chloropropanoyl)-8-azabicyclo[3.2.1]octan-3-yl]-N-methylbenzamide] | 101%
CC(Cl)C(=O)NC1CC(C)N(c2ccccc2)C1 (stereo not shown) [6-L15, 2-chloro-N-(5-methyl-1-phenylpyrrolidin-3-yl)propanamide] | 99.3%
CC(Cl)C(=O)N(C)C1CCCc2c1cnn2C (stereo not shown) [6-L16, 2-chloro-N-methyl-N-(1-methyl-4,5,6,7-tetrahydro-1H-indazol-4-yl)propanamide] | 112%
CC(Cl)C(=O)N(C(C)CS(C)(=O)=O)C1CC1 (stereo not shown) [6-L17, 2-chloro-N-cyclopropyl-N-(1-methanesulfonylpropan-2-yl)propanamide] | 112%
CC1CN(c2cccc(CN(C)C(=O)C(C)Cl)c2)S(=O)(=O)C1 (stereo not shown) [6-L18, 2-chloro-N-methyl-N-{[3-(4-methyl-1,1-dioxo-1lambda6,2-thiazolidin-2-yl)phenyl]methyl}propanamide] | 112%
COCC(NC(=O)C(C)Cl)c1cccc(C#N)c1 (stereo not shown) [6-L19, 2-chloro-N-[1-(3-cyanophenyl)-2-methoxyethyl]propanamide] | 107%
CC(Cl)C(=O)NC1CS(=O)(=O)Cc2ccccc21 (stereo not shown) [6-L20, 2-chloro-N-(2,2-dioxo-3,4-dihydro-1H-2lambda6-benzothiopyran-4-yl)propanamide] | 93.5%
CC(Cl)C(=O)NC(c1cccs1)c1cccs1 (stereo not shown) [6-L21, N-[bis(thiophen-2-yl)methyl]-2-chloropropanamide] | 100%
CCn1cc(CN(C)C(=O)C(C)Cl)nn1 (stereo not shown) [6-L22, 2-chloro-N-[(1-ethyl-1H-1,2,3-triazol-4-yl)methyl]-N-methylpropanamide] | 94.7%
COc1ccc(C2CCCN2C(=O)CCl)cc1OC (stereo not shown) [6-M03, 2-chloro-1-[2-(3,4-dimethoxyphenyl)pyrrolidin-1-yl]ethan-1-one] | 0.75%
O=C(CCl)Nc1ccc(CN2CCCCC2)cc1 [6-M04, 2-chloro-N-{4-[(piperidin-1-yl)methyl]phenyl}acetamide hydrochloride] | 0.0889%
CN(CC(=O)Nc1c(Cl)cccc1Cl)C(=O)CCl [6-M05, 2-chloro-N-{[(2,6-dichlorophenyl)carbamoyl]methyl}-N-methylacetamide] | 2.21%
CNC(=O)C(NC(=O)CCl)c1ccccc1 (stereo not shown) [6-M06, 2-(2-chloroacetamido)-N-methyl-2-phenylacetamide] | 0.807%
CNS(=O)(=O)c1cc(NC(=O)CCl)ccc1C [6-M07, 2-chloro-N-[4-methyl-3-(methylsulfamoyl)phenyl]acetamide] | 0.859%
O=C(CCl)NC1CCS(=O)(=O)CC1 [6-M08, 2-chloro-N-(1,1-dioxo-1lambda6-thian-4-yl)acetamide] | 53.7%
COc1cc(C)c(C(C)NC(=O)CCl)cc1OC (stereo not shown) [6-M09, 2-chloro-N-[1-(4,5-dimethoxy-2-methylphenyl)ethyl]acetamide] | 3.89%
CCOc1ccccc1NC(=O)C(C)Cl (stereo not shown) [6-M10, 2-chloro-N-(2-ethoxyphenyl)propanamide] | 93.2%
CCN(Cc1ccc(Cl)s1)C(=O)CCl [6-M11, 2-chloro-N-[(5-chlorothiophen-2-yl)methyl]-N-ethylacetamide] | 0.655%
O=C(CCl)NC(c1ccccc1)c1ccccc1 [6-M12, 2-chloro-N-(diphenylmethyl)acetamide] | 0.81%
CC(Cl)C(=O)Nc1ccc(S(=O)(=O)N2CCCC2)cc1 (stereo not shown) [6-M13, 2-chloro-N-[4-(pyrrolidine-1-sulfonyl)phenyl]propanamide] | 117%
NC(=O)c1cc(-c2ccccc2)sc1NC(=O)CCl [6-M14, 2-(2-chloroacetamido)-5-phenylthiophene-3-carboxamide] | 0.446%
